Values joined by “and” are separate entries in the source; they are usually repeats but may differ in a detail not shown here. Equal entries are not always repeated.

The values that follow come from article PMC7822874, “Chemoprotective antimalarials identified through quantitative high-throughput screening of Plasmodium blood and liver stage parasites” (Scientific Reports, 2021).

For test [1], the system named is T1, Plasmodium falciparum Dd2-attB-ScDHODH (transgenic line expressing yeast DHODH), asexual blood stages.
T1 construct: Dd2-attB-ScDHODH, the transgenic line that expresses yeast DHODH
As to the kind of experiment: organism not typed. Details: replicate k of 3 (each line is one of three independent assays; the three lines of one compound and parasite line follow each other). In outline: (§1)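 The transgenic line overexpresses fumarate-dependent yeast DHODH, bypassing parasite mETC and ubiquinone-dependent parasite DHODH. A subset of compounds was run in three independent assays on both lines, and line differences were tested by two-sided Student's t-test.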

The test system of test [2] is T2, Plasmodium falciparum Dd2-attB (parental line), asexual blood stages.
T2 construct: Dd2-attB, the isogenic parental line
As to the kind of experiment: microbe, parasite or virus in culture. The note with it: n = 1; for Individual replicates / Log AC50 (M): 72 h; for AC50: Plasmodium falciparum, DD2, 72 h, read-out: Individual replicates / Log AC50 (converted). Further details: replicate k of 3 (each line is one of three independent assays; the three lines of one compound and parasite line follow each other). In outline:
as §1

Setting [3] is: 72 h; n = 1; read-out: Individual replicates / Log AC50 (converted).

In the case of `O=C(CC[S+](=O)([O-])c1nc(-c2cccs2)cc(C(F)(F)F)n1)Nc1ccc(OC(F)(F)F)cc1` [NCGC00103927-03], the “Individual replicates / Log AC50 (M)” value is -4.8486 Log AC50 (M) in test [1] (72 h, n = 1) and -4.7986 Log AC50 (M) in test [2]. The AC50 in test [1] (setting [3]) is 15.9 µM; in test [2], 17.8 µM.
With `CN(C)CCCCNC(=O)c1cccc(-c2cc(O)c3ncccc3c2)c1` [NCGC00244528-01], the “Individual replicates / Log AC50 (M)” value in test [1] (72 h, n = 1) was -4.7486 Log AC50 (M); in test [2] it was -4.8986 Log AC50 (M) and -4.8486 Log AC50 (M). Besides, the AC50 in test [1] (setting [3]) was 15.9 µM; in test [2], 17.8 µM.
As for `Oc1ccc(/C=C/c2ccccc2F)c2cccnc12` [NCGC00184903-01], the “Individual replicates / Log AC50 (M)” value in test [1] (72 h, n = 1) is -4.9986 Log AC50 (M) and -5.1986 Log AC50 (M); in test [2] it was -5.2486 Log AC50 (M) and -5.1486 Log AC50 (M). Also, the AC50 in test [1] (setting [3]) and in test [2] was 6.33 µM each time.
In the case of `CN(C)c1ccc(-c2cc(O)c3ncccc3c2)cc1` [NCGC00183795-01], the “Individual replicates / Log AC50 (M)” value in test [1] (72 h, n = 1) is -4.7486 Log AC50 (M) and -4.9986 Log AC50 (M). Also, in test [2], the “Individual replicates / Log AC50 (M)” value is -5.0986 Log AC50 (M) and -5.1486 Log AC50 (M); the AC50 was 8.94 µM.
As for `C=CC(=O)Nc1cccc(C(OCCN2CCCCC2)c2cc3nccc(C(=O)OC(C)C)c3s2)c1` (stereo not drawn) [NCGC00493267-01], the “Individual replicates / Log AC50 (M)” value in test [1] (72 h, n = 1) was -5.0486 Log AC50 (M) and -4.7986 Log AC50 (M); in test [2], -5.1486 Log AC50 (M) and -5.0486 Log AC50 (M). For the same molecule, the AC50 in test [1] (setting [3]) is 7.97 µM; in test [2] it was 8.94 µM.
For the molecule `CN(C)c1ccc(-c2nc(-c3ccccc3O)n(Cc3ccccc3)n2)cc1` [NCGC00388637-01], the “Individual replicates / Log AC50 (M)” value in test [1] (72 h, n = 1) was -5.6486 Log AC50 (M) and -6.0486 Log AC50 (M) and -6.1486 Log AC50 (M); in test [2], -6.0986 Log AC50 (M). Besides, in test [2], the AC50 is 0.797 µM.
For `Oc1ccc(CNc2ccc(F)cc2F)c2cccnc12` [NCGC00184894-01], the “Individual replicates / Log AC50 (M)” value is -4.8486 Log AC50 (M) in test [1] (72 h, n = 1); -4.9486 Log AC50 (M) and -5.0486 Log AC50 (M) in test [2]. For the same molecule, the AC50 was 17.8 µM in test [1] (setting [3]) and 14.2 µM in test [2].
As for `O=C(O)c1ccc(O)c2ncc(N3CCCN(CCCc4ccncc4)CC3)cc12` [NCGC00247752-01], the “Individual replicates / Log AC50 (M)” value was -4.7986 Log AC50 (M) and -4.7486 Log AC50 (M) in test [1] (72 h, n = 1); -4.7486 Log AC50 (M) in test [2]. Besides, the AC50 in test [1] (setting [3]) was 17.8 µM; in test [2] it was 12.6 µM.
As for `Cc1cc(C)nc(NCc2ccc(O)c3ncccc23)c1` [NCGC00241026-01], the “Individual replicates / Log AC50 (M)” value is -4.8986 Log AC50 (M) in test [1] (72 h, n = 1) and -4.7986 Log AC50 (M) in test [2]. The values for the AC50 in test [1] (setting [3]) and in test [2] were 20 µM and 17.8 µM, respectively.
As to `Oc1ccc(CNc2ccccn2)c2cccnc12` [NCGC00184898-01], the “Individual replicates / Log AC50 (M)” value in test [1] (72 h, n = 1) was -4.7486 Log AC50 (M); in test [2], -4.7486 Log AC50 (M) and -4.6986 Log AC50 (M). The AC50 was 14.2 µM in test [1] (setting [3]) and 17.8 µM in test [2].
Regarding `Cc1nn2c(c1-c1ccccc1-c1ccccc1)N(Cc1cccc(C#N)c1)CCC2` [NCGC00499314-01], the “Individual replicates / Log AC50 (M)” value is -4.9986 Log AC50 (M) and -5.0986 Log AC50 (M) in test [1] (72 h, n = 1); -5.1486 Log AC50 (M) and -5.0486 Log AC50 (M) in test [2]. Moreover, the AC50 in test [1] (setting [3]) was 10 µM; in test [2], 8.94 µM.
Take `CCc1nc2c(sc3nc4c(cc32)COC(C)(C)C4)c(=O)n1Cc1ccco1` [NCGC00053301-03]: the AC50 in test [1] (setting [3]) was 10 µM; in test [2] it was 17.8 µM.
On to `c1ccc(CCn2nc(-c3cnccn3)nc2CCCN2CCCCC2)cc1` [NCGC00390064-01], for which the “Individual replicates / Log AC50 (M)” value is -4.7986 Log AC50 (M) and -5.0986 Log AC50 (M) and -4.7486 Log AC50 (M) in test [1] (72 h, n = 1); -4.9986 Log AC50 (M) and -5.1486 Log AC50 (M) and -4.8486 Log AC50 (M) in test [2].
For the molecule `COc1ccc(NCc2ccc(O)c3ncccc23)nc1` [NCGC00241022-01], the “Individual replicates / Log AC50 (M)” value is given as -4.9486 Log AC50 (M) in test [1] (72 h, n = 1) and -4.8486 Log AC50 (M) in test [2]. The results for the AC50 in test [1] (setting [3]) and in test [2] were 11.3 µM and 20 µM, respectively.
As for `CCCCOC(=O)c1ccnc2cc(-c3nc4ccccc4[nH]3)sc12` [NCGC00482448-01], the “Individual replicates / Log AC50 (M)” value in test [1] (72 h, n = 1) was -5.5986 Log AC50 (M) and -5.6986 Log AC50 (M); in test [2] it was -5.7486 Log AC50 (M) and -5.6986 Log AC50 (M). In addition, the AC50 in test [1] (setting [3]) and in test [2] was 2 µM each time.
For the molecule `O=C(CCc1ccccc1)NC(c1cccs1)c1cc(Cl)c2cccnc2c1O` (stereo not drawn) [MLS000703748-02], the “Individual replicates / Log AC50 (M)” value in test [1] (72 h; n = 1) is reported as -5.3986 Log AC50 (M); in test [2], -5.4486 Log AC50 (M). In addition, the AC50 in test [1] (setting [3]) and in test [2] was 3.99 µM in each case.
Regarding `COC(=O)c1ccc(O)c2ncc(N3CC[C@@H](N)C3)cc12` [NCGC00241044-01], the “Individual replicates / Log AC50 (M)” value in test [1] (72 h, n = 1) is -5.1986 Log AC50 (M) and -5.0986 Log AC50 (M); in test [2], -4.8986 Log AC50 (M) and -5.0486 Log AC50 (M). For the same molecule, the AC50 was 11.3 µM in test [1] (setting [3]) and 7.1 µM in test [2].
Regarding `CC(C)OC(=O)c1ccnc2cc(C(OCCN3CCCCC3)c3ccccc3Cl)sc12` (stereo not drawn) [NCGC00481510-01], the “Individual replicates / Log AC50 (M)” value was -5.0986 Log AC50 (M) in test [1] (72 h, n = 1) and -5.1986 Log AC50 (M) in test [2]. For the same molecule, the AC50 in test [1] (setting [3]) is 8.94 µM; in test [2], 7.1 µM.
For the molecule `CCOc1ccc(NC(=O)c2c(NCc3cccnc3)sc3c2CCCC3)cc1` [NCGC00140582-02], the “Individual replicates / Log AC50 (M)” value in test [1] (72 h, n = 1) is -5.2486 Log AC50 (M) and -5.1486 Log AC50 (M); in test [2], -5.3486 Log AC50 (M) and -5.2986 Log AC50 (M). The AC50 was 6.33 µM in test [1] (setting [3]) and 5.64 µM in test [2].
In the case of `Oc1cc(NCCN2CCOCC2)cc2cccnc12` [NCGC00183799-01], the values for the AC50 in test [1] (setting [3]) and in test [2] were 8.94 µM and 6.33 µM, respectively. Moreover, the “Individual replicates / Log AC50 (M)” value in test [2] was -5.1486 Log AC50 (M) and -5.2486 Log AC50 (M).
On to `O=C(O)c1ccnc(-n2ncc(C(OCCN3CCCCC3)c3ccc(Cl)cc3)c2-c2ccccc2)c1` (stereo not drawn) [NCGC00487049-01], for which the “Individual replicates / Log AC50 (M)” value in test [1] (72 h, n = 1) was -4.7486 Log AC50 (M); in test [2], -4.7986 Log AC50 (M) and -4.8486 Log AC50 (M). The AC50 in test [1] (setting [3]) and in test [2] was 15.9 µM each time.
On to `Oc1ccc(CNc2cccc(C(F)(F)F)c2)c2cccnc12` [NCGC00177833-02], for which the “Individual replicates / Log AC50 (M)” value in test [1] (72 h, n = 1) is -4.7486 Log AC50 (M). In addition, the values for the AC50 in test [1] (setting [3]) and in test [2] were 15.9 µM and 17.8 µM, respectively.
`CCCCOC(=O)c1ccnc2cc(C(OCCN3CCCCC3)c3ccccc3Cl)sc12` (stereo not drawn) [NCGC00481505-01]: the “Individual replicates / Log AC50 (M)” value in test [1] (72 h, n = 1) was -5.0486 Log AC50 (M) and -5.1486 Log AC50 (M); in test [2] it was -5.2486 Log AC50 (M) and -5.0986 Log AC50 (M). Further, the results for the AC50 in test [1] (setting [3]) and in test [2] were 14.2 µM and 8.94 µM, respectively.
